Data reported in patent publication US12576107B2, “Methods of treating chronic inflammatory diseases” (METIMEDI PHARMACEUTICALS CO., LTD., priority 2018, dated 2026).

Tests used:
TLR-4 = test: Western blot of TLR-4 in HepG2 cells; assay type: cell-based, Human; settings: 2.5 mM; HepG2 cells (liver epithelium); hypoxia
Experimental: (§1) Human Hepatocellular carcinoma cell line, HepG2, was purchased from American Type Culture Collection (Manassas, VA, USA). The HepG2 cells were maintained in RPMI 1640 containing 10% fetal bovine serum (Life Technologies, Gaithersburg, MD, USA), 100 IU/ml penicillin, and 100 μg/ml streptomycin (Welgene, Daegu, South Korea).
(§2) To prepare whole cell lysate, cells were lysed with lysis buffer (1% NP-40, 0.25% sodium deoxycholate, 150 mM NaCl, 1 mM EDTA, 1% Triton X-100, 50 mM Tris-HCl (pH 7.4), 10% Glycerol) with protease inhibitor cocktail (Roche, Basel, Switzerland) and phosphatase inhibitors (NA3VO4 1 mM, NaF 100 mM). Then, protein concentration was measured using the Bicinchoninic acid (BCA) assay kit (Thermo Scientific, Waltham, MA). Whole cell or nuclear lysates were transferred onto polyvinylidene fluoride membranes (Merck Millipore, Billerica, MA, USA). After blocking in 5% non-fat milk (Bio-Rad, Hercules, CA, USA) for 1 h, the membranes were incubated overnight at 4° C. with primary antibody diluted in TBST containing 100 mM Tris-HCl (pH 7.5), 1.5 M NaCl, and 0.5% Tween-20 obtained from Sigma-Aldrich, to which 5% BSA and 0.1% sodium azide (Sigma-Aldrich) had been added. Specific primary antibodies to HIF-1α (1:1000), HIF-2α (1:1000), LDH-A (1:1000), LDH-B (1:1000), TLR-4 (1:1000), NF-κB (1:1000), VEGF (1:1000), α-tubulin (1:1000), Actin (1:1000), and GAPDH (1:5000). […]

NF-κb = test: Western blot of NF-κb in the tissue of retinal pigment epithelium; assay type: in vivo, mice; settings: 2.5 mM (so in the source)
Experimental: as §2, with “(1:5000). The next day, the membranes were washed with TBST and incubated for 2 h with anti-rabbit secondary antibody (1:10000). Immunoblots were developed using a western blot detection reagent (Abclone, Seoul, Korea) and exposed to x-ray film (Agfa, Leverkusen, Germany) according to the manufacturer's protocol.” for “(1:5000).”

[1] = test system: hypoxia inducible factor-1α (HIF-1α); test: Immunocytochemistry of HIF-1α in ARPE-19 cells; assay type: cell-based, Human; settings: 2.5 mM
Experimental: as §1, with “retinal pigment epithelium” for “Hepatocellular carcinoma”, “ARPE-19,” for “HepG2,”, “ARPE-19” for “HepG2”, “RPMI1640” for “RPMI 1640”
(§3) ARPE-19 and SK-N-SH cells were fixed on bio-coated coverslips (BD bioscience, San Jose, CA, USA) by 4% PFA for 20 min and then incubated with the primary antibodies for 15 h. The primary antibodies were as follows: HIF-1a (1:300, BD Biosciences, San Jose, CA, USA); LDH-A (1:300, Santa Cruz Biotechnology, Santa Cruz, CA, USA); LDH-B (1:300, Santa Cruz Biotechnology, Santa Cruz, CA, USA); NF-κB (1:300, Santa Cruz Biotechnology, Santa Cruz, CA, USA); TLR-4 (1:300, Santa Cruz Biotechnology, Santa Cruz, CA, USA); apoE (1:200, Santa Cruz Biotechnology, Santa Cruz, CA, USA). After PBS wash, the cells were incubated with anti-mouse secondary biotinylated antibody (1:2000, Vector Laboratorie, Burlingame, CA, USA) and visualized with streptavidin conjugated to Fluorescein (Vector Laboratorie, Burlingame, CA, USA). […] Confocal fluorescence images were obtained with confocal laser scanning microscopy (LSCM, Nikon A1+, Tokyo, Japan) under a 60× oil immersion lens.

nuclear factor-kappa B = test: Immunocytochemistry of nuclear factor-kappa B in ARPE-19 cells; assay type: cell-based, Human; settings: 2.5 mM, hypoxia
Experimental: as §1, with “retinal pigment epithelium” for “Hepatocellular carcinoma”, “ARPE-19,” for “HepG2,”, “ARPE-19” for “HepG2”, “RPMI1640” for “RPMI 1640”
as §3

hypoxia-mediated factors [2] = test: Eye CID in vitro experiment, Western blot in ARPE-19 cells; assay type: cell-based, Human; settings: 2.5 mM; ARPE-19 cells (retinal pigment epithelium); normoxia and hypoxia
Experimental: as §1, with “retinal pigment epithelium” for “Hepatocellular carcinoma”, “ARPE-19,” for “HepG2,”, “ARPE-19” for “HepG2”, “RPMI1640” for “RPMI 1640”
as §2

hypoxia-mediated factors [3] = test: Brain CID in vitro experiment, Western blot in SK-N-SH cells; assay type: cell-based; settings: 2.5 mM; SK-N-SH cells (human neuroblastoma); normoxia and hypoxia
Experimental: as §1, with “Brain” for “Hepatocellular carcinoma”, “SK-N-SH,” for “HepG2,”, “SK-N-SH” for “HepG2”, “RPMI1640” for “RPMI 1640”
as §2

toll like receptor 4 = test: Immunocytochemistry of toll like receptor 4 in ARPE-19 cells; assay type: cell-based, Human; settings: 2.5 mM, hypoxia
Experimental: as §1, with “retinal pigment epithelium” for “Hepatocellular carcinoma”, “ARPE-19,” for “HepG2,”, “ARPE-19” for “HepG2”, “RPMI1640” for “RPMI 1640”
as §3

CC(O)C(=O)[O-].CC(O)C(=O)[O-].[Ca+2] (stereo not shown) [calcium lactate]
decreased: inflammatory factor (TLR-4), Western blot (TLR-4) | inflammatory factor (NF-κb), Western blot (NF-κb) | hypoxia inducible factor-1α (HIF-1α), immunocytochemistry [1] | inflammatory factor (nuclear factor-kappa B), immunocytochemistry (nuclear factor-kappa B) | hypoxia-mediated factors, Western blot (hypoxia-mediated factors [2]) | hypoxia-mediated factors, Western blot (hypoxia-mediated factors [3]) | inflammatory factor (toll like receptor 4), immunocytochemistry (toll like receptor 4)
